The format of data set [1] is physicochemical. To be noted: for Content of CBT/% / Content of OXA/%: 60° C.; for crystal structure: high temperature (60° C.) test.
Data set [2] is classed as physicochemical. To be noted: for crystal structure: light stability test; for Content of CBT/% / Content of OXA/%: light.
Data set [3] is described as follows: Equilibrium solubility in water by HPLC. Conditions: for equilibrium solubility in water (25° C.): HPLC.
Data set [4] concerns Human fibroblast-like synovial cell rheumatoid arthritis (HFLS-RA) cells. The data set can be described thus: Proliferation of HFLS-RA cells. It is filed as cell-based. On the procedure: Human fibroblast-like synovial cell rheumatoid arthritis (HFLS-RA) cells were cultured in vitro and their proliferation was measured by quantifying the number of cells 48 h after treatment.

The test system of data set [5] is Human MH7A synovial cells. Put plainly: Proliferation of MH7A cells. It is filed as cell-based. As for the experimental part:
Human MH7A synovial cells were cultured in vitro and measured by quantifying the number of cells 48 h after treatment Proliferation.

The mark [6] stands for this setting: 48 h after treatment, 1.563-100 μg/mL.

Read-outs that look alike come from different tables or passages of the source.

As to `N.N.O=C([O-])C1(C(=O)[O-])CCC1.[Pt+2]` [CBT, carboplatin, reference compound], the “Content of CBT/%” value stood at 100% in data set [1] (Day 0); 99.76% in data set [1] (Day 1); 99.29% in data set [1] (Day 3); 99.16% in data set [1] (Day 5); 99.27% in data set [1] (Day 10); 99.82% in data set [1] (Day 15). The “Content of CBT/%” value in data set [2] (Day 0) is listed as 100%; in data set [2] (Day 1), 99.37%; in data set [2] (Day 3), 99.84%; in data set [2] (Day 5), 99.31%; in data set [2] (Day 10), 98.29%; in data set [2] (Day 15), 98.82%. The crystal structure entry in data set [1] and in data set [2] was “unchanged” each time. Also, the “equilibrium solubility in water (25° C.)” value in data set [3] came to 12.7 mg/mL.

As to `OCC1OC(Oc2cc(O)cc(C=Cc3ccc(O)cc3)c2)C(O)C(O)C1O.[NH2][Pt]1([NH2])[O]C(=O)C2(CCC2)C(=O)[O]1` (centres unmarked) [CBT-PDT, carboplatin-polydatin cocrystal], the “Content of CBT/%” value is listed as 100% in data set [1] (Day 0); 100% in data set [1] (Day 1); 99.27% in data set [1] (Day 3); 99.08% in data set [1] (Day 5); 99.69% in data set [1] (Day 10); 99.83% in data set [1] (Day 15). For the same compound, the “Content of CBT/%” value in data set [2] (Day 0) was found to be 100%; in data set [2] (Day 1), 100%; in data set [2] (Day 3), 100%; in data set [2] (Day 5), 99.60%; in data set [2] (Day 10) it was 99.72%; in data set [2] (Day 15) it was 99.29%. Further, the crystal structure result in data set [1] and in data set [2] was “unchanged” in each case. Also, the “equilibrium solubility in aqueous solution compared with oxaliplatin or carboplatin, respectively” value in data set [3] (aqueous solution, versus parent platinum drug) is given as “higher”. Also, the “equilibrium solubility in water (25° C.)” value in data set [3] is 16.2 mg/mL.

As for `CCN(CC)CCCC(C)Nc1ccnc2cc(Cl)ccc12.[NH2][Pt]1([NH2])[O]C(=O)C2(CCC2)C(=O)[O]1` (centres unmarked) [CBT-U72, carboplatin-chloroquine cocrystal], the “Content of CBT/%” value is reported as 100% in data set [1] (Day 0); 100% in data set [1] (Day 1); 99.66% in data set [1] (Day 3); 99.84% in data set [1] (Day 5); 99.67% in data set [1] (Day 10); 99.97% in data set [1] (Day 15). Moreover, the “Content of CBT/%” value in data set [2] (Day 0) was 100%; in data set [2] (Day 1), 100%; in data set [2] (Day 3), 99.20%; in data set [2] (Day 5), 99.24%; in data set [2] (Day 10) it was 99.57%; in data set [2] (Day 15), 99.92%. For the same compound, the crystal structure result in data set [1] is given as “unchanged”.

For `O=C1[O][Pt]2([NH][C@@H]3CCCC[C@H]3[NH]2)[O]C1=O` [OXA, oxaliplatin, reference compound], the “Content of OXA/%” value in data set [1] (Day 0) is listed as 100%; in data set [1] (Day 1) it was 98.36%; in data set [1] (Day 3) it was 99.33%; in data set [1] (Day 5), 99.18%; in data set [1] (Day 10), 99.09%; in data set [1] (Day 15) it was 98.21%. The “Content of OXA/%” value turned out to be 100% in data set [2] (Day 0); 98.87% in data set [2] (Day 1); 99.32% in data set [2] (Day 3); 96.89% in data set [2] (Day 5); 99.45% in data set [2] (Day 10); 98.01% in data set [2] (Day 15). Further, the crystal structure result in data set [1] and in data set [2] was “unchanged” each time. Also, the “IC50, proliferation of HFLS-RA” value in data set [4] (setting [6]) was 4.56 µg/mL. In data set [4] (FIG. 6), the “proliferation of HFLS-RA cells inhibited” value worked out at 99%. Further, the “IC50, proliferation of MH7A” value in data set [5] (setting [6]) was 8.91 µg/mL. Further, the “proliferation of MH7A cells inhibited” value in data set [5] (FIG. 7) is recorded as 99%.

As to `O=C(O)C1(C(=O)O)CCC1.O=C1[O][Pt]2([NH]C3CCCCC3[NH]2)[O]C1=O` (centres unmarked) [OXA-CBDA, oxaliplatin-1,1-cyclobutane dicarboxylic acid cocrystal], the “Content of OXA/%” value is recorded as 100% in data set [1] (Day 0); 100% in data set [1] (Day 1); 99.98% in data set [1] (Day 3); 99.12% in data set [1] (Day 5); 99.45% in data set [1] (Day 10); 99.57% in data set [1] (Day 15). Moreover, the “Content of OXA/%” value in data set [2] (Day 0) is reported as 100%; in data set [2] (Day 1), 100%; in data set [2] (Day 3) it was 100%; in data set [2] (Day 5) it was 99.56%; in data set [2] (Day 10) it was 99.97%; in data set [2] (Day 15), 99.30%.

On to `O=C1[O][Pt]2([NH]C3CCCCC3[NH]2)[O]C1=O.OCC1OC(Oc2cc(O)cc(C=Cc3ccc(O)cc3)c2)C(O)C(O)C1O` (centres unmarked) [OXA-PDT, oxaliplatin-polydatin cocrystal], for which the “Content of OXA/%” value in data set [1] (Day 0) is reported as 100%; in data set [1] (Day 1), 100%; in data set [1] (Day 3) it was 100%; in data set [1] (Day 5), 99.73%; in data set [1] (Day 10) it was 99.63%; in data set [1] (Day 15), 99.87%. Also, the “Content of OXA/%” value came out at 100% in data set [2] (Day 0); 100% in data set [2] (Day 1); 99.97% in data set [2] (Day 3); 99.88% in data set [2] (Day 5); 99.44% in data set [2] (Day 10); 99.91% in data set [2] (Day 15). For the same compound, the crystal structure entry in data set [1] and in data set [2] was “unchanged” each time.

For `CCN(CC)CCCC(C)Nc1ccnc2cc(Cl)ccc12.O=C1[O][Pt]2([NH]C3CCCCC3[NH]2)[O]C1=O` (centres unmarked) [OXA-U72, oxaliplatin-chloroquine cocrystal], the “Content of OXA/%” value in data set [1] (Day 0) is listed as 100%; in data set [1] (Day 1) it was 100%; in data set [1] (Day 3), 99.38%; in data set [1] (Day 5), 99.46%; in data set [1] (Day 10), 99.33%; in data set [1] (Day 15), 99.46%. In addition, the “Content of OXA/%” value in data set [2] (Day 0) was 100%; in data set [2] (Day 1), 100%; in data set [2] (Day 3), 99.21%; in data set [2] (Day 5), 99.64%; in data set [2] (Day 10), 99.33%; in data set [2] (Day 15), 99.64%. Further, the crystal structure result in data set [1] is “unchanged”.

(Values after US20250387405A1 (priority 2021, published 2025).)
